{"source": "patent US9580487B2", "about": "“Method of treating stomach or bowel-related disorders by administering glucagon-like-peptide-2 (GLP-2) analogues” (Zealand Pharma A/S, priority 2005, dated 2017)", "key": {"[1]": {"test_system": "Sprague Dawley rats", "experiment": "Crypt-villus length and muscularis thickness in the small intestine of SD rats", "assay_type": "in vivo", "procedure": "FIG. 12 is a set of graphs showing the effect of compound 1846 (SEQ ID NO:34) on epithelial crypt-villus height (FIG. 12A) and muscular thickness (FIG. 12B) in the jejunum (i.e., mid section of the small intestine). Sprague Dawley rats were treated intravenously with compound 1846 (SEQ ID NO:34) (0.62, 3.41 or 6.2 mg/kg once daily) for 5 days (n=6/dose group). Then the animals were sacrificed and small intestinal biopsies (1 cm) were collected 25 cm distal from the pyloric sphincter. The biopsies were fixed, embedded in paraffin, sectioned and stained with haematoxylin and eosin. Stained sections were examined under a microscope and crypt depth, villus height, crypt-villus length and muscularis thickness measured. […] Values are means±SEM. * P<0.05, relative to vehicle controls (0 mg/kg/d).\nThe effect of the clinical candidate, 1846 (SEQ ID NO:34), on crypt-villus length and muscularis thickness in the small intestine of SD rats was investigated. 1846 (SEQ ID NO:34) (0.62, 3.41 or 6.2 mg/kg/day, n=6 rats/dose group) was administered as an i.v. bolus, once daily for five consecutive days. Twenty-four hours after the last dose had been administered the rats were sacrificed and a 1 cm biopsy was excised from the jejunum (30 cm distal from the gastric duodenal junction) and from the ileum (30 cm proximal from the ileocaecal junction) for histological processing."}, "[2]": {"test_system": "Sprague-Dawley rats treated with 5-Fluorouracil (5-FU)", "experiment": "5-FU-induced small intestinal atrophy and diarrhea in SD rats", "assay_type": "in vivo", "procedure": "FIG. 10 is a set of graphs showing effects of compound 1846 (SEQ ID NO:34) (16, 80 and 400 nmol/kg/d; s.c., n=6/dose group) in male Spague-Dawley rats treated with the cytostatic drug 5-Fluorouracil (5-FU). Compound 1846 (SEQ ID NO:34) was administered for 3 days prior to and for 4 days together with 5-FU (75 mg/kg, i.p. daily). Results were compared with responses in control animals treated with vehicle (saline) or 5-FU alone. Saline and 5-FU controls are also shown. […] Values are means±SEM. * P<0.05, relative to 5-FU alone.\nFIG. 11 is a set of graphs showing the therapeutic effect of compound 1846 (SEQ ID NO:34) on diarrhea induced by treatment with the cytostatic drug 5-fluorouracil (5-FU). Rats were treated with 5-FU for 4 days with 75 mg/kg once daily (days 1-4); (n=40 rats). Half of the animals received additional treatment with compound 1846 (SEQ ID NO:34) (400 nmol/kg s.c. once daily) during the last 3 days prior to (days −3 to −1) and during 4 days of 5-FU treatment (days 0 to 3). Rats were observed twice daily (morning and evening) to determine whether the animal had diarrhea and the severity of the diarrhea was scored according to this scale: (0) no diarrhea; (1) mild—fecal staining around the anus; (2) moderate—fecal staining on the hind limbs and tail; and (3) severe—fecal staining on the front limbs and abdomen. On day 5, about 70% of Sprague Dawley rats that received 5-FU alone had developed diarrhea (FIG. 11A) while only 30% of the rats that were co-treated with compound 1846 (SEQ ID NO:34) developed diarrhea (FIG. 11B).\nThe effect of the clinical candidate, 1846 (SEQ ID NO:34), on 5-FU-induced small intestinal atrophy and diarrhea was investigated in SD rats. We have previously shown that i.p. administration of 75 mg/kg 5-FU once daily for four days induces significant small intestinal atrophy and diarrhea in SD rats. 1846 (SEQ ID NO:34) (16, 80 and 400 nmol/kg/d; […]) was administered twice daily for three days prior to 5-FU and for four days together with 5-FU administration. 5-FU controls and PBS controls were included in the study. […]"}}, "note": "Entries after “also recorded” stand apart in the source; their conditions may differ. No end group written: not given here.", "data": [{"substance": "[Gly2, Glu3, Ser8,11, Leu10, Ala16,24,28]hGLP-2(1-33)-(Lys)6-NH2 (HGEGSFSSELSTILDALAARDFIAWLIATKITDKKKKKK-NH2) [Compound 1846]", "values": [{"measurement": "Muscular thickness of the jejunum", "setting": "[1]; 0.62, 3.41 or 6.2 mg/kg i.v. once daily for 5 days", "value": "no effect on the muscular thickness of the jejunum"}, {"measurement": "Crypt-villus length", "setting": "[1]; 0.62, 3.41 or 6.2 mg/kg i.v. once daily for 5 days, jejunum (and ileum)", "value": "dose-dependent increases in crypt-villus length; also recorded: dose-dependently increased mean crypt-villus length in the jejunum and ileum"}, {"measurement": "Muscularis thickness in the ileum", "setting": "[1]; 0.62, 3.41 or 6.2 mg/kg/day i.v. for five days", "value": "dose-dependently increased"}, {"measurement": "Rats that developed diarrhea on day 5", "setting": "[2]; 400 nmol/kg s.c. with 5-FU 75 mg/kg, 5-FU alone about 70%", "value": 30, "unit": "%"}, {"measurement": "5-FU-induced small intestinal atrophy (SI-BW, SI length) in rats", "setting": "[2]; 16, 80 and 400 nmol/kg/d s.c., 3 days prior to and 4 days with 5-FU 75 mg/kg i.p. daily", "value": "prevented 5-FU-induced small intestine atrophy; also recorded: dose-dependently prevented 5-FU induced small intestinal atrophy and maintained SI-BW and SI length at levels similar to the controls"}, {"measurement": "Incidence and severity of diarrhea", "setting": "[2]; highest dose (400 nmol/kg), rats administered 5-FU", "value": "decreased the incidence and severity of diarrhea"}]}]}
